Here are results for five molecules from publication PMC9697446 (International Journal of Molecular Sciences, 2022).

The structures appear in SMILES notation.

For data set [1], the system named is isolated rat liver mitochondria. Description: Bypass of rotenone (complex I) inhibition, mitochondrial repolarization. The class given is biochemical. Conditions: mitochondria energized by glutamate/malate, rotenone added. The protocol: The ability to bypass complex I inhibition was determined for MB, its reduced form MBH2, and compound 4i (Figure 4).
The addition of rotenone to mitochondria energized by complex I substrates (glutamate/malate) causes considerable depolarization.
Safranine O (10 µM) was used as a membrane potential probe. Fluorescence intensity at 580 nm (excitation at 520 nm) was measured with a Wallac Victor 3 1420 Multilabel Counter (Perkin Elmer, Turku, Finland). The mitochondrial protein concentration was 0.2 mg/mL. The medium for measurements contained 75 mM sucrose, 225 mM mannitol, 10 mM K-HEPES (pH 7.4), 0.02 mM EGTA, and 1 mM KH2PO4. After a 5-min incubation, 5 mM glutamate/malate or 5 mM succinate in the presence of 0.5 µM rotenone were added to produce the mitochondrial potential. Then, the compounds (30 µM) or the same volume of the vehicle (DMSO) were injected into the mitochondrial suspension. After 15–20 min, 12.5 µM CaCl2 was added to each sample to induce the depolarization of mitochondria, and after 5 min, 0.5 µM CCCP was added for maximum depolarization of the mitochondria. The level of depolarization (ΔΨm) was calculated using the fluorescence value after 10-min incubation with 30 µM of compounds (or vehicle) normalized between the fluorescence measurements after substrate and CCCP addition, where fluorescence intensity at 580 nm was 100% after substrate addition and was 0% after CCCP addition.

The test system is the same in data set [2]. In words: Oxygen consumption rate of mitochondria (Seahorse flux analyzer). The class given is biochemical. The note with it: nanomolar concentrations; complex I substrates (glutamate and malate) and in the presence of rotenone. As to the method:
Meanwhile, compound 4i can stimulate respiration of isolated rat liver mitochondria, which was estimated using an XFe96 Seahorse extracellular flux analyzer (Figure 5).
Analysis was based on the fluorometric determination of O2 and H^+ levels with solid-state probes on a sensor cartridge. The oxygen consumption rate (OCR) was measured successively in the presence of RC substrates and then after the addition of ADP (phosphorylating respiration), ATP synthase F^o-subunit inhibitor oligomycin (proton leak), oxidative phosphorylation uncoupler FCCP (maximal respiration), and the corresponding inhibitors of respiration chain complexes (non-mitochondrial respiration) (Figure 5a).
The oxygen consumption was measured using a Seahorse XF96 flux analyzer on mitochondria respiring on glutamate (5 mM) and malate (5 mM), according the same protocol as with a correction to a 96-well instead of a 24-well plate. Respiration by rat liver mitochondria (5 µg/well) was sequentially measured in a coupled state with substrates of complex I (basal respiration); followed by phosphorylating respiration after the addition of ADP; non-phosphorylating or resting respiration induced with the addition of oligomycin; uncoupled respiration stimulated by the addition of FCCP; and finally, non-mitochondrial respiration after the addition of the inhibitor of complex I rotenone.

For data set [3], the target named is T1, NMDA receptor intrachannel site ([3H]MK-801) (Rattus norvegicus, UniProt P35439).
T1 construct: from tissue; host or cells: rat brain membranes
Description: Radioligand binding, [3H]MK-801 site of the NMDA receptor. The protocol:
(§1) The experiments were carried out using a rat brain membrane fraction.
(§2) The effect of test compounds on the radioligand binding to NMDA receptors was determined as previously described. Two radioactive ligands were used: [^3H] […] A pellet of rat brain membrane specimen was resuspended in a working buffer (5 mM HEPES/4.5 mM Tris buffer, pH 7.6) in a ratio of 1:5 and stored in liquid nitrogen. The reaction mixture (with a final volume of 0.5 mL) contained 200 µL of the working buffer, 50 µL of 50 nM radioligand solution, and 250 µL of the membrane suspension. Nonspecific binding was determined in the presence of 50 µL of […] of unlabeled ligand.
(§3) For the binding study, the reaction mixture was incubated at room temperature for 2 h. After incubation, the samples were filtered through GF/B glass-fiber filters (Whatman), washed with the working buffer, dried, and transferred to scintillation vials, and then 5 mL of scintillation fluid was added to the vials containing 4 g of diphenyloxazole (PPO), 0.2 g of diphenyloxazoil benzene (POPOP), and 1 L of toluene.
(§4) The effect of the test compounds on the binding of [^3H]

Data set [4] deals with T2, NMDA receptor peripheral site ([3H]ifenprodil) (Rattus norvegicus, UniProt P35439+Q00960).
T2 construct: from tissue; host or cells: rat brain membranes
T2 sequence (Q00960 27-1482, other chains not shown): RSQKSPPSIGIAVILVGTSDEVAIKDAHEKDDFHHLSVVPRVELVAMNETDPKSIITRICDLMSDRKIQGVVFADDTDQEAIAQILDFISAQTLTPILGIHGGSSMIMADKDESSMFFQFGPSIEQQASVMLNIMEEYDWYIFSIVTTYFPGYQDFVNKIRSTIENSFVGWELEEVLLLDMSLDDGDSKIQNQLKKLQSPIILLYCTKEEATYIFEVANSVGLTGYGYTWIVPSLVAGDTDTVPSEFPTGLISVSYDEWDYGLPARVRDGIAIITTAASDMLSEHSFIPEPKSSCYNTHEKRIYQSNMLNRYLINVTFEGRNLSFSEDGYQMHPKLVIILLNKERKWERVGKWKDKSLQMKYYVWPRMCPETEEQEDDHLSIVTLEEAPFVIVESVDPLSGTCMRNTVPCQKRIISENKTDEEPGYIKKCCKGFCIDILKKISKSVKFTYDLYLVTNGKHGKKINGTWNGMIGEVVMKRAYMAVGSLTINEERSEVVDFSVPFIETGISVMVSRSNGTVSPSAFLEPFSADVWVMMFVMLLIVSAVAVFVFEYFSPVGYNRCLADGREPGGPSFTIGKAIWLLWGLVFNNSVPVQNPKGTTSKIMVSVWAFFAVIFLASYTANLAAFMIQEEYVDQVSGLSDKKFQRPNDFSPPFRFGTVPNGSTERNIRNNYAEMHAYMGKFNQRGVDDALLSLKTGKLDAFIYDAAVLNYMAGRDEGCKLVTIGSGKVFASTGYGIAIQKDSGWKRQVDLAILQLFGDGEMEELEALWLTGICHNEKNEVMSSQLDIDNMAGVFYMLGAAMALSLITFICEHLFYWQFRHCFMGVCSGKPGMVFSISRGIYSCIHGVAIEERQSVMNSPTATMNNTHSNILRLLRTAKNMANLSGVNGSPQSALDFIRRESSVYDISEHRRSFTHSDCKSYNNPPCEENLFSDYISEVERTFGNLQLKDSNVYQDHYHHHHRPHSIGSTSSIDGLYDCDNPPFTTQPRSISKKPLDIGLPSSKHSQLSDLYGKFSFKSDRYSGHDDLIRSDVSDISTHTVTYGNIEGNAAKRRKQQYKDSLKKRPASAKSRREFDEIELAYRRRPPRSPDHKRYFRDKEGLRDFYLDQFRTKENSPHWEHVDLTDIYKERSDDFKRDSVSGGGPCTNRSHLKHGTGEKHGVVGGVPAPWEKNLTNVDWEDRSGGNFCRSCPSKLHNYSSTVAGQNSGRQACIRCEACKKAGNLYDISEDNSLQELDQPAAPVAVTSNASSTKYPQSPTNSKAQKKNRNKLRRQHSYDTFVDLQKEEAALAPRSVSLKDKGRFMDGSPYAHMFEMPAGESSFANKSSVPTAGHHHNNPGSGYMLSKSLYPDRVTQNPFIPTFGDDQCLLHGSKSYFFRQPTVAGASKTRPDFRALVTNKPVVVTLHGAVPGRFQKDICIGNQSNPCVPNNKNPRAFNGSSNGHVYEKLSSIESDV
In words: Radioligand binding, [3H]ifenprodil site of the NMDA receptor. The protocol: as §1, §2, §3, §4

The subject of data set [5] is rat brain cortical neurons (BCN). Description: Ionomycin-induced toxicity in brain cortical neurons, MTT assay. The class given is cell-based. The note with it: ionomycin 1 µM. As to the method:
(§5) This neurotoxicity model reflects the calcium stress involved with several types of insults, such as amyloid toxicity, excitotoxicity, and ischemic damage. The viability of the primary culture of rat cerebellar granule cells (CGC) and brain cortical neurons (BCN) was assessed by the MTT assay in the presence of various concentrations of compound 4i.
Cerebellar granule cells (CGC) and brain cortical neurons (BCN) were isolated from P-7 or P0-2 rat’s pups, respectively, using a previously described protocol. Once removed, cerebella or brain cortex were digested for 15 min in 0.025% type II trypsin (w/v) at 37 °C. Ice-cold DMEM containing 5% (w/v) fetal bovine serum was added to inactivate the trypsin. The crude cell suspension was centrifuged, and the cell pellet was resuspended in Neurobasal with 2% (v/v) B27 supplemented with 15% (v/v) fetal bovine serum (FBS), 100 U/mL penicillin, and […] streptomycin. The cells were cultured in a humidified, 5% (v/v) CO2-controlled environment at 37 °C. […] The cell viability was then evaluated as the dehydrogenase activity with the 3-(4,5-dimethylthiazol-2-yl)-2,5-diphenyltetrazolium bromide (MTT) assay. The absorbance was measured at 570 nm using a Victor microplate reader (Perkin Elmer), and data were normalized with intact control assumed 100%.
(Tetrazolium assays rely on reduction of a dye to a coloured formazan, in cell work by metabolically active cells.)

The subject of data set [6] is rat cerebellar granule cells (CGC) and brain cortical neurons (BCN). In words: Viability of CGC and BCN with the compound alone, MTT assay. The class given is cell-based. Conditions: various concentrations. The protocol: as §5
Cerebellar granule cells (CGC) and brain cortical neurons (BCN) were isolated from P-7 or P0-2 rat’s pups, respectively, using a previously described protocol. Once removed, cerebella or brain cortex were digested for 15 min in 0.025% type II trypsin (w/v) at 37 °C. Ice-cold DMEM containing 5% (w/v) fetal bovine serum was added to inactivate the trypsin. […] After 8-10 day in culture the cells were incubated with a test compound or an equal volume of the DMSO (<1% (v/v) of the whole volume of the medium under the layer of cells and 3 µM ionomycin for 24 h. The cell viability was then evaluated as the dehydrogenase activity with the 3-(4,5-dimethylthiazol-2-yl)-2,5-diphenyltetrazolium bromide (MTT) assay. The absorbance was measured at 570 nm using a Victor microplate reader (Perkin Elmer), and data were normalized with intact control assumed 100%.

The subject of data set [7] is isolated rat liver mitochondria. Description: Mitochondrial membrane potential and calcium-induced depolarization (safranine O). Conditions: complex I inhibitor rotenone and a substrate of RC complex II. The class given is biochemical.
The conditions of data set [8]: cited from earlier work.

For the molecule `CC1CCc2c(c3cc(OC(F)(F)F)ccc3n2CCC(=O)N2c3ccc(N(C)C)cc3Sc3cc(N(C)C)ccc32)C1` (stereo not shown) [Compound 4i], the “Repolarization of rotenone-depolarized mitochondria (bypass of complex I inhibition)” value in data set [1] is reported as “exhibits this type of activity only in a 10 µM concentration”. Further, in data set [2], the “Phosphorylating respiration and maximal respiration (OCR)” value is “statistically significant increase”. Besides, the IC50 (as a rule, the midpoint of a concentration-inhibition curve) came out at 101 ± 9.2 µM in data set [3] and 10.4 ± 1.2 µM in data set [4]. Also, the “Protection from ionomycin-induced toxicity, BCN” value in data set [5] is “statistically significant protection”. Moreover, the “Effect on formazan formation in the MTT assay (toxicity to cells)” value in data set [6] is recorded as “did not affect formazan formation”.
For the molecule `CN(C)c1ccc2c(c1)Sc1cc(N(C)C)ccc1N2C(=O)CCn1c2c(c3cc(OC(F)(F)F)ccc31)CCCC2` [Compound 4h], the 50% inhibitory concentration (IC50) in data set [3] is 116 ± 10.1 µM; in data set [4] it was 61.3 ± 6.5 µM.
Turning to `CN(C)c1ccc2nc3ccc(=[N+](C)C)cc-3sc2c1` [MB, Methylene blue, reference compound], the “Repolarization of rotenone-depolarized mitochondria (bypass of complex I inhibition)” value in data set [1] was “concentration-dependent repolarization”. Also, the “Effect on mitochondrial membrane potential at 1 μM, rotenone and complex II substrate” value in data set [7] was “induced mitochondrial depolarization”. Besides, the Redox potential in data set [8] is 11 mV.
Take `CN(C)c1ccc2c(c1)Sc1cc(N(C)C)ccc1N2C(=O)CCn1c2c(c3ccccc31)CCCCCC2` [Compound 4m]: in data set [7], the “Effect on mitochondrial membrane potential at 1 μM, rotenone and complex II substrate” value was “induced mitochondrial depolarization”.
Consider `CN(C)c1ccc2c(c1)Sc1cc(N(C)C)ccc1N2` [MBH2, reference compound], for which, in data set [1], the “Repolarization of rotenone-depolarized mitochondria (bypass of complex I inhibition)” value was “concentration-dependent repolarization”.
